Assays:
5-LO (LTB4) = assay: In vitro heparinised human blood assay, A23187 challenge, LTB4 radioimmunoassay, test b); format: cell-based
Description: (§1) b) An in vitro assay system involving incubating a test compound with heparinised human blood, prior to challenge with the calcium ionophore A23187 and then indirectly measuring the inhibitory effects on 5-LO by assaying the amount of LTB4 using the specific radioimmunoassay described by Carey and Forder (F. Carey and R. A. Forder, Brit. J. Pharmacol. 1985, 84, 34P) which involves the use of a protein-LTB4 conjugate produced using the procedure of Young et alia (Prostaglandins, 1983, 26(4),605-613). The effects of a test compound on the enzyme cyclooxygenase (which is involved in the alternative metabolic pathway for arachidonic acid and gives rise to prostaglandins, thromboxanes and related metabolites) may be measured at the same time using the specific radioimmunoassay for thromboxane B2 (T×B2) described by Carey and Forder (see above). This test provides an indication of the effects of a test compound against 5-LO and also cyclooxygenase in the presence of blood cells and proteins. It permits the selectivity of the inhibitory effect on 5-LO or cyclooxygenase to be assessed.

cyclooxygenase (TxB2) = assay: In vitro heparinised human blood assay, A23187 challenge, TxB2 radioimmunoassay, test b); format: cell-based
Description: as §1

CCC1(c2cccc(OCc3ccc4ccccc4c3)c2)COC(C)(C)O1 (centres unmarked) [4-ethyl-2,2-dimethyl-4-[3-(naphth-2-ylmethoxy)phenyl]-1,3-dioxolane]
IC50 (5-LO (LTB4)): 100 nM
IC50 (cyclooxygenase (TxB2)): > 40000 nM
